Drawing on article PMC11314366, “Unveiling the Catalytic Roles of DsBBS1 and DsBBS2 in the Bibenzyl Biosynthesis of Dendrobium sinense” (Molecules, 2024), this text covers Km for one compound.

This test has as its system DsBBS2. The test is described as follows: HPLC of resveratrol formed, nonlinear curve fitting. As to conditions: 0.5 mM malonyl-CoA, 50 mM Hepes, 37 °C, 30 min; p-coumaroyl-CoA 0.5-5.0 mM. In kind it is biochemical, Dendrobium sinense.

What is called Km is the substrate concentration at which the rate is half of its maximum.

In the case of `CC(C)(COP(=O)(O)OP(=O)(O)OC[C@H]1O[C@@H](n2cnc3c(N)ncnc32)[C@H](O)[C@@H]1OP(=O)(O)O)[C@@H](O)C(=O)NCCC(=O)NCCSC(=O)/C=C/c1ccc(O)cc1` [p-coumaroyl-CoA], the Km was determined as 2050 ± 310 µM.
